Experiments:
[1] = test system: normal NK cells expanded with K562-aAPC; experiment: percent inhibition of viability; higher = more inhibition; conditions: 72 h, IL-2 2.5 ng/mL
Protocol: (§1)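 Drug sensitivity and resistance testing on K562-aAPC-expanded normal NK cells: 5 concentrations (10-fold steps over a 10,000-fold range), 72 h at 37 °C, viability by CellTiter-Glo normalised to DMSO and benzethonium chloride controls; DSS from the fitted curve.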

[2] = test system: DERL-7 (IL-2 2.5 ng/mL); experiment: as above; conditions: 72 h
[3] = test system: IMC-1 (IL-2 20 ng/mL); experiment: as above; conditions: 72 h
[4] = test system: KAI3 (IL-2 2.5 ng/mL); experiment: as above; conditions: 72 h
[5] = test system: KHYG-1 (IL-2 2.5 ng/mL); experiment: as above; conditions: 72 h
[6] = test system: NK-92 (IL-2 2.5 ng/mL); experiment: as above; conditions: 72 h
[7] = test system: NK-YS (IL-2 2.5 ng/mL); experiment: as above; conditions: 72 h
[8] = test system: NKL (IL-2 2.5 ng/mL); experiment: as above; conditions: 72 h
[9] = test system: SNK-6 (IL-2 2.5 ng/mL); experiment: as above; conditions: 72 h
[10] = test system: YT (IL-2 2.5 ng/mL); experiment: as above; conditions: 72 h
[11] = test system: normal primary NK cells, pool 1 (3 donors) (IL-2 2.5 ng/mL); experiment: as above; conditions: 72 h
[12] = test system: normal primary NK cells, pool 1 (3 donors), resting (IL-2 0 ng/mL); experiment: as above; conditions: 72 h
[13] = test system: normal primary NK cells, pool 2 (3 donors) (IL-2 2.5 ng/mL); experiment: as above; conditions: 72 h
[14] = test system: normal primary NK cells, pool 3 (3 donors) (IL-2 2.5 ng/mL); experiment: as above; conditions: 72 h
[15] = test system: normal NK cells expanded with K562-aAPC; experiment: drug sensitivity score (DSS) (DSS units); higher = more sensitive; extreme values may be limits of the assay; conditions: 72 h; IL-2 2.5 ng/mL
Protocol: as §1

[16] = test system: DERL-7 (IL-2 2.5 ng/mL); experiment: as above; conditions: 72 h
[17] = test system: IMC-1 (IL-2 20 ng/mL); experiment: as above; conditions: 72 h
[18] = test system: KAI3 (IL-2 2.5 ng/mL); experiment: as above; conditions: 72 h
[19] = test system: KHYG-1 (IL-2 2.5 ng/mL); experiment: as above; conditions: 72 h
[20] = test system: NK-92 (IL-2 2.5 ng/mL); experiment: as above; conditions: 72 h
[21] = test system: NK-YS (IL-2 2.5 ng/mL); experiment: as above; conditions: 72 h
[22] = test system: NKL (IL-2 2.5 ng/mL); experiment: as above; conditions: 72 h
[23] = test system: SNK-6 (IL-2 2.5 ng/mL); experiment: as above; conditions: 72 h
[24] = test system: YT (IL-2 2.5 ng/mL); experiment: as above; conditions: 72 h
[25] = test system: normal primary NK cells, pool 1 (3 donors) (IL-2 2.5 ng/mL); experiment: as above; conditions: 72 h
[26] = test system: normal primary NK cells, pool 1 (3 donors), resting (IL-2 0 ng/mL); experiment: as above; conditions: 72 h
[27] = test system: normal primary NK cells, pool 2 (3 donors) (IL-2 2.5 ng/mL); experiment: as above; conditions: 72 h
[28] = test system: normal primary NK cells, pool 3 (3 donors) (IL-2 2.5 ng/mL); experiment: as above; conditions: 72 h

NC(=O)c1ccc(I)c([N+](=O)[O-])c1 [Iniparib] (max concentration tested 10000 nM)
percent inhibition of viability [%]
Conditions | 1 nM | 10 nM | 100 nM | 1000 nM | 10000 nM
[1] | 7.03 | 0.05 | 0.33 | 1.63 | 13.4
[2] | -3.85 | -2.44 | 3.9 | -0.89 | 28.1
[3] | 2.82 | 5.28 | 4.37 | 4.53 | -3.7
[4] | 11.4 | 8.8 | 12.9 | 11.2 | 19
[5] | -2.79 | -0.73 | -1.94 | 0.34 | 2.04
[6] | 8.25 | 4.1 | 12.8 | 3.36 | 7.28
[7] | -0.99 | 0.64 | -4.34 | -1.33 | -4.16
[8] | -0.1 | 1.47 | 0.26 | -4.81 | -5.47
[9] | 2.09 | 3.24 | 11.9 | 10.5 | 23.6
[10] | 7.63 | 6.75 | 4.79 | 6.7 | 5.3
[11] | 8.54 | 2.74 | 4.22 | 12.3 | 53.8
[12] | -2.43 | -4.44 | -6.4 | 24.9 | 78.9
[13] | -8.36 | -7.08 | 1.43 | -0.1 | 30.1
[14] | -1.14 | -4.93 | 1.99 | -1.49 | 19.3

Conditions | drug sensitivity score
[15] | 0.24
[16] | 1.1
[17] | 0
[18] | 0
[19] | 0
[20] | 0
[21] | 0
[22] | 0
[23] | 2.01
[24] | 0
[25] | 4.84
[26] | 7.97
[27] | 1.31
[28] | 0.46

CN(C)c1cc2c(cc1Sc1nc3c(N)nccc3n1CCNCC(C)(C)C)OCO2 [CUDC-305] (max concentration tested 10000 nM)
percent inhibition of viability [%]
Conditions | 1 nM | 10 nM | 100 nM | 1000 nM | 10000 nM
[1] | -9.36 | -5.57 | 18.3 | 98.9 | 99.5
[2] | -1.72 | -0.9 | 22.4 | 101 | 101
[3] | -5.61 | -0.06 | 1.88 | 100 | 101
[4] | -0.9 | -0.19 | 41.5 | 108 | 108
[5] | -1.89 | -3.69 | 6.61 | 107 | 111
[6] | -12 | -2.97 | 13.8 | 103 | 107
[7] | -4.26 | -6.26 | 23.7 | 108 | 109
[8] | -12.3 | -13.6 | 3.23 | 97.1 | 95.2
[9] | -24.7 | -25.3 | -1.59 | 89.5 | 89.3
[10] | -8.17 | -8.94 | 5.06 | 96.3 | 102
[11] | 3.05 | 11.3 | 19.7 | 84.3 | 92.8
[12] | -0.67 | 17.6 | 27.6 | 43.1 | 69.2
[13] | -9.1 | 7.74 | 23 | 77.7 | 86.7
[14] | -11.7 | 2.98 | 12 | 77.3 | 88.5

Conditions | drug sensitivity score
[15] | 20.9
[16] | 21.5
[17] | 18.2
[18] | 23.5
[19] | 19.4
[20] | 20.4
[21] | 21.7
[22] | 17.9
[23] | 16
[24] | 18.2
[25] | 17.8
[26] | 12.7
[27] | 17
[28] | 15.8

CNC(=O)c1cccc2cc(Oc3ccnc4cc(OCC5(N)CC5)c(OC)cc34)ccc12 [Lucitanib] (max concentration tested 10000 nM)
percent inhibition of viability [%]
Conditions | 1 nM | 10 nM | 100 nM | 1000 nM | 10000 nM
[1] | -5.59 | -4.77 | -3.52 | 4.7 | 23.6
[2] | -0.32 | -4.66 | 2.4 | -2.57 | 23.4
[3] | -4.99 | 1.11 | 1.41 | 2.72 | 0.85
[4] | -0.3 | -0.75 | -0.45 | 11.7 | 49.6
[5] | -3.19 | -3.91 | -0.83 | 10.4 | 70.4
[6] | -12.1 | -11.8 | 3.06 | 13.7 | 83.8
[7] | -6.67 | -4.7 | -0.96 | 9.75 | 65.5
[8] | 1.05 | 4.31 | 4.24 | -3.6 | 3.06
[9] | -7.37 | -13.2 | -13.8 | -8.69 | 69.6
[10] | -5.87 | -7.33 | -6.32 | -2.96 | 58.7
[11] | -6.86 | 10.5 | -2.99 | 8.01 | 5.53
[12] | -16.7 | 4.29 | 3.09 | 0.61 | 22.1
[13] | -3.78 | 2.2 | 2.46 | -3.23 | -5
[14] | -7.6 | 0.39 | 3.76 | -6.23 | -5.45

Conditions | drug sensitivity score
[15] | 1.53
[16] | 0.68
[17] | 0
[18] | 4.47
[19] | 5.63
[20] | 6.93
[21] | 5.23
[22] | 0
[23] | 3.25
[24] | 2.92
[25] | 0
[26] | 0.81
[27] | 0
[28] | 0

— the supplement of paper PMC5908809
